“And” between values parts separate entries of the source, which are not always exact repeats. Equal entries are not always repeated. Where two headings read alike, the source gives them in different places.
How the values were obtained:
Interleukin 8 (IL-8) = assay: Interleukin 8 release into basal medium (ELISA); type: cell-based, human
[1] = system: respiratory syncytial virus A; type: cell-based; details: RSV A
RANTES = RANTES release into basal medium (ELISA); type: cell-based, human
[2] = system: MucilAir nasal human 3D Epithelial model
HRV-C15 = assay: Viral genome copy number (quantitative RT-PCR of apical washes) in HRV-C15-infected MucilAir nasal epithelia (Examples 1 and 3); type: cell-based, human rhinovirus; details: for effect on RV-C15 replication (in words): rupintrivir basal, comparison of fucoidan sources
[3] = system: MucilAir nasal human 3D Epithelial model; assay: Cilia beating frequency (CBF); type: cell-based; details: Example 4; day 4; once or twice daily; ribavirin basal
[4] = system: MucilAir nasal human 3D Epithelial model; assay: Mucociliary clearance (MCC), bead velocity; type: cell-based; details: Example 4; day 4; once or twice daily; ribavirin basal
HRV-A16 = assay: Viral genome copy number (quantitative RT-PCR of apical washes) in HRV-A16-infected MucilAir nasal epithelia (Example 5); type: cell-based, human rhinovirus; details: twice daily apical, rupintrivir 5 μM basal
[5] = system: MucilAir nasal human 3D Epithelial model; details: Examples 2 and 4 (RSV A experiments); all measured timepoints
HRV-B14 = assay: Viral genome copy number (quantitative RT-PCR of apical washes) in HRV-B14-infected MucilAir nasal epithelia (Example 6); type: cell-based, human rhinovirus; details: for Mean Log 10 ((Copies/ml) + 1), viral genome copy number: 5 μM, positive antiviral control
[6] = Example 4, once or twice daily (25 μg Test UP: see once daily exception), ribavirin basal

NC(=O)c1ncn([C@@H]2O[C@H](CO)[C@@H](O)[C@H]2O)n1 [Ribavirin, ribavirin]
effect on RSV A induced IL-8 release (in words) (Interleukin 8 (IL-8); [6]): prevented the RSV A induced IL-8 release | Mean viral genome copy number ([1]; Example 2, 3.5 hours post infection, AP apical / BL basal as in label, ribavirin 100 uM basal, 0.00 = below detection limit): 5.63 Log 10 ((Copies/ml) + 1) and 3.52 Log 10 ((Copies/ml) + 1) | Mean viral genome copy number ([1]; Example 2, 24 hours post infection, AP apical / BL basal as in label, ribavirin 100 uM basal, 0.00 = below detection limit): 6.48 Log 10 ((Copies/ml) + 1) and 10.22 Log 10 ((Copies/ml) + 1) | Mean viral genome copy number ([1]; Example 2, 48 hours post infection, AP apical / BL basal as in label, ribavirin 100 uM basal): 7.07 Log 10 ((Copies/ml) + 1) and 11.46 Log 10 ((Copies/ml) + 1) | Mean viral genome copy number ([1]; Example 2, 72 hours post infection, AP apical / BL basal as in label, ribavirin 100 uM basal): 7.78 Log 10 ((Copies/ml) + 1) and 10.33 Log 10 ((Copies/ml) + 1) | Mean viral genome copy number ([1]; Example 2, 96 hours post infection, AP apical / BL basal as in label, ribavirin 100 uM basal): 8.32 Log 10 ((Copies/ml) + 1) and 9.09 Log 10 ((Copies/ml) + 1) | decrease of the viral load ([1]; Example 2, ribavirin 100 μM basal): 3 logs | Mean viral genome copy number ([1]; Example 4, 3.5 hours post infection, first block of Table 12, 1x (once daily apical), ribavirin 100 μM basal): 6.76 Log 10 ((Copies/ml) + 1) | Mean viral genome copy number ([1]; Example 4, 3.5 hours post infection, second block of Table 12, head prints 1x, ribavirin 100 μM basal): 6.76 Log 10 ((Copies/ml) + 1) | Mean viral genome copy number ([1]; Example 4, 24 hours post infection, first block of Table 12, 1x (once daily apical), ribavirin 100 μM basal): 7.06 Log 10 ((Copies/ml) + 1) | Mean viral genome copy number ([1]; Example 4, 24 hours post infection, second block of Table 12, head prints 1x, ribavirin 100 μM basal): 7.06 Log 10 ((Copies/ml) + 1) | Mean viral genome copy number ([1]; Example 4, 48 hours post infection, first block of Table 12, 1x (once daily apical), ribavirin 100 μM basal): 6.79 Log 10 ((Copies/ml) + 1) | Mean viral genome copy number ([1]; Example 4, 48 hours post infection, second block of Table 12, head prints 1x, ribavirin 100 μM basal): 6.79 Log 10 ((Copies/ml) + 1) | Mean viral genome copy number ([1]; Example 4, 72 hours post infection, first block of Table 12, 1x (once daily apical), ribavirin 100 μM basal): 7.40 Log 10 ((Copies/ml) + 1) | Mean viral genome copy number ([1]; Example 4, 72 hours post infection, second block of Table 12, head prints 1x, ribavirin 100 μM basal): 7.40 Log 10 ((Copies/ml) + 1) | Mean viral genome copy number ([1]; Example 4, 96 hours post infection, first block of Table 12, 1x (once daily apical), ribavirin 100 μM basal): 8.89 Log 10 ((Copies/ml) + 1) | Mean viral genome copy number ([1]; Example 4, 96 hours post infection, second block of Table 12, head prints 1x, ribavirin 100 μM basal): 8.89 Log 10 ((Copies/ml) + 1) | effect on RSV A-induced RANTES release (in words) (RANTES; [6]): effectively prevented the virus-induced increase of RANTES release | TEER of inoculated inserts (in words) ([2]; Example 4, RSV A-inoculated inserts, once or twice daily, ribavirin basal): TEER values similar to that of the mock inserts | Mean viral genome copy number (HRV-C15; Example 3, HRV-C15, 3.5 hours post infection, 1x (once daily apical), positive control basal, 0.00 = below detection limit): 0.00 Log 10 ((Copies/ml) + 1) | Mean viral genome copy number (HRV-C15; Example 3, HRV-C15, 3.5 hours post infection, 2x (twice daily apical), positive control basal, 0.00 = below detection limit): 0.00 Log 10 ((Copies/ml) + 1) | Mean viral genome copy number (HRV-C15; Example 3, HRV-C15, 24 hours post infection, 1x (once daily apical), positive control basal): 5.14 Log 10 ((Copies/ml) + 1) | Mean viral genome copy number (HRV-C15; Example 3, HRV-C15, 24 hours post infection, 2x (twice daily apical), positive control basal): 5.14 Log 10 ((Copies/ml) + 1) | Mean viral genome copy number (HRV-C15; Example 3, HRV-C15, 48 hours post infection, 1x (once daily apical), positive control basal): 7.63 Log 10 ((Copies/ml) + 1) | Mean viral genome copy number (HRV-C15; Example 3, HRV-C15, 48 hours post infection, 2x (twice daily apical), positive control basal): 7.63 Log 10 ((Copies/ml) + 1) | Mean viral genome copy number (HRV-C15; Example 3, HRV-C15, 72 hours post infection, 1x (once daily apical), positive control basal): 6.89 Log 10 ((Copies/ml) + 1) | Mean viral genome copy number (HRV-C15; Example 3, HRV-C15, 72 hours post infection, 2x (twice daily apical), positive control basal): 6.89 Log 10 ((Copies/ml) + 1) | Mean viral genome copy number (HRV-C15; Example 3, HRV-C15, 96 hours post infection, 1x (once daily apical), positive control basal): 6.24 Log 10 ((Copies/ml) + 1) | Mean viral genome copy number (HRV-C15; Example 3, HRV-C15, 96 hours post infection, 2x (twice daily apical), positive control basal): 6.24 Log 10 ((Copies/ml) + 1) | effect on RSV A induced cilia impairment (in words) [3]: prevented | effect on RSV A induced MCC reduction (in words) [4]: attenuated this RSV A induced MCC reduction

CCOC(=O)/C=C/[C@H](C[C@@H]1CCNC1=O)NC(=O)[C@@H](CC(=O)[C@@H](NC(=O)c1cc(C)on1)C(C)C)Cc1ccc(F)cc1 [Rupintrivir]
Mean viral genome copy number (HRV-A16; 3.5 hours post infection, 0.00 = below detection limit): 0.00 Log 10 ((Copies/ml) + 1) | Mean viral genome copy number (HRV-A16; 24 hours post infection, 0.00 = below detection limit): 0.00 Log 10 ((Copies/ml) + 1) | Mean viral genome copy number (HRV-A16; 48 hours post infection, 0.00 = below detection limit): 4.70 Log 10 ((Copies/ml) + 1) | Mean viral genome copy number (HRV-A16; 72 hours post infection, 0.00 = below detection limit): 5.30 Log 10 ((Copies/ml) + 1) | Mean viral genome copy number (HRV-A16; 96 hours post infection): 3.77 Log 10 ((Copies/ml) + 1) | cytotoxicity (LDH, Triton X-100 = 100%) [5]: below 5% | effect on RV-C15 induced IL-8 release (in words) (Interleukin 8 (IL-8); Example 1, HRV-C15-inoculated inserts, day 4 post infection): prevented | effect on RSV A induced IL-8 release (in words) (Interleukin 8 (IL-8); Example 2, RSV A-inoculated inserts, day 2 and day 4 as stated): prevented | Mean Log 10 ((Copies/ml) + 1), viral genome copy number (HRV-B14; time 3.5 h): 0.00 Log 10 ((Copies/ml) + 1) | Mean Log 10 ((Copies/ml) + 1), viral genome copy number (HRV-B14; time 24 h): 3.65 Log 10 ((Copies/ml) + 1) | Mean Log 10 ((Copies/ml) + 1), viral genome copy number (HRV-B14; time 48 h): 4.23 Log 10 ((Copies/ml) + 1) | Mean Log 10 ((Copies/ml) + 1), viral genome copy number (HRV-B14; time 72 h): 4.26 Log 10 ((Copies/ml) + 1) | Mean Log 10 ((Copies/ml) + 1), viral genome copy number (HRV-B14; time 96 h): 0.00 Log 10 ((Copies/ml) + 1) | detection of virus (in words) (HRV-B14; RV-B14, Day 4): no more virus was detected | effect on virus-induced increase of RANTES release (in words) (RANTES; Example 3, RV-C15, rupintrivir basal): effectively prevented the virus-induced increase of RANTES release | effect on HRV-C15 induced transient TEER decrease (in words) ([2]; Example 1, HRV-C15-inoculated inserts, apical or basal as in label): prevented this transient TEER decrease | TEER of inoculated inserts ([2]; Example 3, HRV-C15-inoculated inserts): above 100 Ω·cm^2 | Mean viral genome copy number (HRV-C15; Example 1, HRV-C15, 3.5 hours post infection, AP apical / BL basal as in label, rupintrivir 5 μM basal, 0.00 = below detection limit): 0.00 Log 10 ((Copies/ml) + 1) | Mean viral genome copy number (HRV-C15; Example 1, HRV-C15, 24 hours post infection, AP apical / BL basal as in label, rupintrivir 5 μM basal, 0.00 = below detection limit): 5.57 Log 10 ((Copies/ml) + 1) | Mean viral genome copy number (HRV-C15; Example 1, HRV-C15, 48 hours post infection, AP apical / BL basal as in label, rupintrivir 5 μM basal): 6.46 Log 10 ((Copies/ml) + 1) | Mean viral genome copy number (HRV-C15; Example 1, HRV-C15, 72 hours post infection, AP apical / BL basal as in label, rupintrivir 5 μM basal): 6.69 Log 10 ((Copies/ml) + 1) | Mean viral genome copy number (HRV-C15; Example 1, HRV-C15, 96 hours post infection, AP apical / BL basal as in label, rupintrivir 5 μM basal): 7.17 Log 10 ((Copies/ml) + 1) | decrease of the viral load (HRV-C15; Example 1, HRV-C15, rupintrivir 5 μM basal, on average): two | effect on RV-C15 replication (in words) (HRV-C15; Example 3): most effective inhibitor of RV-C15 replication | effect on RV-C15 replication (in words) (HRV-C15; Example 3, listed as rupintrivir): significantly reduced viral genome copy number

Polyethylene glycol tert-octyl phenyl ether [Triton X-100]
TEER ([2]; positive control for cytotoxicity, 10% (v/v) in normal saline, 50 μl apically, Examples 1 to 4): below 100 Ω·cm^2

— patent US20230241098A1, “ANTIVIRAL PHARMACEUTICAL COMPOSITION” (priority 2020, published 2023)
